Like-named read-outs stand apart in the source and are kept apart here.
Columns and labels:
human A3 receptors (hA3) [1] = molecular target: T1, human A3 receptors (hA3) (Homo sapiens, UniProt P0DMS8); assay: Displacement of [125I]AB-MECA binding at human A3 receptors expressed in HEK-293 cells (Table 4)
T1 construct: expressed in transfected cells; host or cells: HEK-293
T1 sequence (P0DMS8 1-318): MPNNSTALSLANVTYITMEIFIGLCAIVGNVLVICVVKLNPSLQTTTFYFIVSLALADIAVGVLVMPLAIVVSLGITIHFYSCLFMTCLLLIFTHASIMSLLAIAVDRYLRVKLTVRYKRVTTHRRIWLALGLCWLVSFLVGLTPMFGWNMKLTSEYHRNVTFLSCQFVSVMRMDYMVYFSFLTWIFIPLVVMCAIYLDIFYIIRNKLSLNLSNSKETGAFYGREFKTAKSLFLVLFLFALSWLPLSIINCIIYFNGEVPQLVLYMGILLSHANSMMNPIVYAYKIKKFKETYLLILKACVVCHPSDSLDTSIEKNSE

[2] = molecular target: T2, human A2B receptors (hA2B) (Homo sapiens, UniProt P29275); assay: Radioligand binding ([125I]ABOPX / [3H]ZM241385) at human A2B receptors expressed in HEK-293 cells; conditions: for rA1/hA2B: Ki ratio
T2 construct: expressed in transfected cells; host or cells: HEK-293 (HEK-A2B, G418-selected)
T2 sequence (P29275 1-332): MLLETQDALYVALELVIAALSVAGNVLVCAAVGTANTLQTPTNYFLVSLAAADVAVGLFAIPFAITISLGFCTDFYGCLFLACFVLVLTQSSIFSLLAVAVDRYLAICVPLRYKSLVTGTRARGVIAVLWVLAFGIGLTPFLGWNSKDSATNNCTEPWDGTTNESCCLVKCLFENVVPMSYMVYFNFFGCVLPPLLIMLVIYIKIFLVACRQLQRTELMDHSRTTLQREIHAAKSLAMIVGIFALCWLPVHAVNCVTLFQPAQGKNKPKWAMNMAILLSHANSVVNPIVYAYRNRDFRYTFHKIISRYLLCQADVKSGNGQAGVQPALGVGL

rat A2A receptors (rA2A) = molecular target: T3, rat A2A receptors (rA2A) (Rattus norvegicus, UniProt P30543); assay: Displacement of [3H]CGS 21680 binding in rat striatal membranes
T3 construct: to A2A receptors from rat striatal membranes was performed as described; from tissue; host or cells: rat striatal membranes
T3 sequence (P30543 whole entry): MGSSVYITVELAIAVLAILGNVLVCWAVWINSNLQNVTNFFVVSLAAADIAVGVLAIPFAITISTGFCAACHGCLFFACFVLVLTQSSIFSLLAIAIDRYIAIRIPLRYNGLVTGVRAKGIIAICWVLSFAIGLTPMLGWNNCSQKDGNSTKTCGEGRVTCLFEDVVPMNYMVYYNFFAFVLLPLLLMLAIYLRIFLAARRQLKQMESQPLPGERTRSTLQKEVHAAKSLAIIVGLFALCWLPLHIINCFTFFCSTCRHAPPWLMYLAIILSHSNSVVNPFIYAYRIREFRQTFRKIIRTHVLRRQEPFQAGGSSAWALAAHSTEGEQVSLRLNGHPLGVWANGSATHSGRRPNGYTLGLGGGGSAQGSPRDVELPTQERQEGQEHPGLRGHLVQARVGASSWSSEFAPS
Procedure: (§1) Bruns, R. F. et al., Naunyn-Schmiedeberg's Arch. […] Binding of [^3H]R-N^6-phenylisopropyladenosine. Schwabe, U. et al., Naunyn-Schmiedeberg's Arch. […] (Dupont NEN, Boston, Mass.) to A2A receptors from rat striatal membranes was performed as described. […] All non-radioactive compounds were initially dissolved in DMSO, and diluted with buffer to the final concentration, where the amount of DMSO never exceeded 2%. Incubations were terminated by rapid filtration over Whatman GF/B filters, using a Brandell cell harvester (Brandell, Gaithersburg, Md.). The tubes were rinsed three times with 3 mL buffer each.
(§2) At least six different concentrations of competitor, spanning 3 orders of magnitude adjusted appropriately for the IC50 of each compound, were used. IC50 values, calculated with the nonlinear regression method implemented in (Graph-Pad Prism, San Diego, Calif.), were converted to apparent Ki values as described. Linden, J., J. Cycl. Nucl.

rat A1 receptors (rA1) = molecular target: T4, rat A1 receptors (rA1) (Rattus norvegicus, UniProt P25099); assay: Displacement of [3H]R-PIA binding in rat brain (cerebral cortical) membranes
T4 construct: to A1 receptors from rat cerebral cortical membranes; from tissue; host or cells: rat cerebral cortical (brain) membranes
T4 sequence (P25099 1-326): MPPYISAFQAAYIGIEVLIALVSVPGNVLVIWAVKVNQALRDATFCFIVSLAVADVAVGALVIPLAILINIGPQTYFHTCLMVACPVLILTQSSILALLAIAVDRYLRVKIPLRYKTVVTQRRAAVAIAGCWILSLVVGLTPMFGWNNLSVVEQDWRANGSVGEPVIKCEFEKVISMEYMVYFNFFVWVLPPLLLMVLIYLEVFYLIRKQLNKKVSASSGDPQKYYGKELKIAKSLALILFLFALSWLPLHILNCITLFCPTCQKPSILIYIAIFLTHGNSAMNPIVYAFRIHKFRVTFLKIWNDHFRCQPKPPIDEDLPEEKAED
Procedure: as §1, §2

[3] = molecular target: T5, recombinant human A1 receptors (hA1) (Homo sapiens, UniProt P30542); assay: Radioligand binding ([3H]CPX) at recombinant human A1 receptors in HEK-293 cells; conditions: read-out: hA1 Ki or IC50; Table 2
T5 sequence (P30542 1-326): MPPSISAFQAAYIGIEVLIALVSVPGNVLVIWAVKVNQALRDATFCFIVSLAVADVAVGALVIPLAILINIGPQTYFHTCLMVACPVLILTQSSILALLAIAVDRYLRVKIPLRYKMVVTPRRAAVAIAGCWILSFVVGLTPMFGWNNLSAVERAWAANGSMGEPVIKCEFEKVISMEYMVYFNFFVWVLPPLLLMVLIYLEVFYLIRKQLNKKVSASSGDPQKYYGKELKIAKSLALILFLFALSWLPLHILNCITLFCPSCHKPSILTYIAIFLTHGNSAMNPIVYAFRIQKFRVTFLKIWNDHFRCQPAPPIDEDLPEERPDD

[4] = molecular target: recombinant human A2A receptors (hA2A) (Homo sapiens, UniProt P29274); assay: Radioligand binding (125I-ZM241385) at recombinant human A2A receptors in HEK-293 cells; conditions: read-out: hA2A Ki or IC50; Table 2
recombinant human A2A receptors (hA2A), sequence (P29274 whole entry): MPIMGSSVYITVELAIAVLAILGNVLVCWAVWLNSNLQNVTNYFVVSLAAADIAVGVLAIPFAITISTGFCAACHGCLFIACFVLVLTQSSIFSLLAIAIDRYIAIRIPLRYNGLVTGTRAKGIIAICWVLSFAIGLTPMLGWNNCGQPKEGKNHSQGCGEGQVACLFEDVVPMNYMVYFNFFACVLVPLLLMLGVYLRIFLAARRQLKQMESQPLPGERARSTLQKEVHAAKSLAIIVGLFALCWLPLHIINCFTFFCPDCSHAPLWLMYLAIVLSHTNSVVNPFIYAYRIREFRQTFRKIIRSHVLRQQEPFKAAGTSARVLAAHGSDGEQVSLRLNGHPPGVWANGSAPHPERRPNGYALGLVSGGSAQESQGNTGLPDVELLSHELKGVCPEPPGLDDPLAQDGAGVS
Procedure: The potency of the xanthine derivatives at human A2B receptors was evaluated using two binding assays. […] In order to determine selectivity, the xanthines were evaluated using standard binding assays at A1, A2A, and A3 receptors.

human A3 receptors (hA3) [5] = molecular target: T1, human A3 receptors (hA3); assay: Displacement of [125I]ABA binding at human A3 receptors expressed in HEK-293 cells; conditions: Table 2; read-out: hA3 Ki or IC50
[6] = Table 4, unmarked value, first of two binding assays, read-out: hA2B Ki
[7] = Table 2, read-out: hA2B Ki or IC50
[8] = Table 2, read-out: rA2A Ki or IC50
[9] = Table 2, read-out: rA1 Ki or IC50

SMILES: CCCn1c(=O)c2[nH]c(-c3ccc(OCC(=O)NN4C(=O)CCCC4=O)cc3)nc2n(CCC)c1=O [Compound 58, 8-[4-[(Carboxymethyl)oxy]phenyl]-1,3-di-(n-propyl)xanthine N,N-Glutarylhydrazide]
- Ki (human A3 receptors (hA3) [1]): 200 ± 45 nM
- rA1/hA2B ([2]; Table 4): 0.6
- Ki [2, 6]: 22 ± 5.5 nM
- Ki (rat A2A receptors (rA2A); Table 4, read-out: rA2A Ki): 135 ± 39 nM
- Ki (rat A1 receptors (rA1); Table 4, read-out: rA1 Ki): 14 ± 2.3 nM

SMILES: CCCn1c(=O)c2[nH]c(-c3ccc(OCC(=O)NN4C(=O)C=C(C)C4=O)cc3)nc2n(CCC)c1=O [Compound 46, 8-[4-[(Carboxymethyl)oxy]phenyl]-1,3-di-(n-propyl)xanthine N,N-Citraconylhydrazide]
- Ki (human A3 receptors (hA3) [1]): 551 ± 106 nM
- rA1/hA2B ([2]; Table 4): 1.4
- Ki [2, 6]: 144 ± 11 nM
- Ki (rat A2A receptors (rA2A); Table 4, read-out: rA2A Ki): 1230 ± 270 nM
- Ki (rat A1 receptors (rA1); Table 4, read-out: rA1 Ki): 203 ± 41 nM

SMILES: CCCn1c(=O)c2[nH]c(-c3ccc(OCC(=O)Nc4ccc(F)cc4)cc3)nc2n(CCC)c1=O [Compound 30, 8-[4-[((4-Fluoro)phenylcarbamoylmethyl)oxy]phenyl]-1,3-di-(n-propyl)xanthine]
- Ki [3]: 17.9 ± 4.5 nM
- Ki [4]: 16.6 ± 3.6 nM
- Ki (human A3 receptors (hA3) [5]): 391 ± 147 nM
- selectivity for human A2B versus rat A1 receptors [2]: 1 fold
- Ki [2, 7]: 2.22 ± 0.19 nM
- Ki (rat A2A receptors (rA2A); [8]): 988 ± 518 nM
- melting point: 298 °C
- Ki (rat A1 receptors (rA1); [9]): 2.72 ± 0.51 nM

SMILES: CCCn1c(=O)c2[nH]c(-c3ccc(OCC(=O)Nc4ccc(C(=O)OC)cc4)cc3)nc2n(CCC)c1=O [Compound 21, 8-[4-[((4-Methoxycarbonyl)phenylcarbamoylmethyl)oxy]phenyl]-1,3-di-(n-propyl)xanthine]
- Ki [3]: 225 ± 9 nM
- Ki [4]: 3100 nM
- Ki (human A3 receptors (hA3) [5]): 363 ± 148 nM
- Ki [2, 7]: 3.93 ± 1.35 nM
- Ki (rat A2A receptors (rA2A); [8]): 541 ± 128 nM
- melting point: > 310 °C
- Ki (rat A1 receptors (rA1); [9]): 38.4 ± 3.9 nM

SMILES: CCCn1c(=O)c2[nH]c(-c3ccc(OCC(=O)NN)cc3)nc2n(CCC)c1=O [Compound 4f]
- Ki (human A3 receptors (hA3) [1]): 498 ± 139 nM
- Ki (rat A2A receptors (rA2A); Table 4, read-out: rA2A Ki): 63.8 ± 21.3 nM
- Ki (rat A1 receptors (rA1); Table 4, read-out: rA1 Ki): 16 ± 0.5 nM

SMILES: CCCn1c(=O)c2[nH]c(-c3ccc(OCC(=O)Nc4ccc(C(F)(F)F)cc4)cc3)nc2n(CCC)c1=O [Compound 29, 8-[4-[((4-Trifluoromethyl)phenylcarbamoylmethyl)oxy]phenyl]-1,3-di-(n-propyl)xanthine]
- Ki [3]: 61.2 ± 8.2 nM
- Ki [4]: 238 ± 28 nM
- Ki (human A3 receptors (hA3) [5]): 213 ± 94 nM
- Ki ([2]; read-out: Ki value at human A2B receptors): 2.14 nM
- Ki (rat A2A receptors (rA2A); [8]): 917 ± 258 nM
- melting point: > 310 °C
- Ki (rat A1 receptors (rA1); [9]): 44.6 ± 6.5 nM
